# Where “and” joins values, the source holds several entries; their conditions need not be identical. Equal entries are not always repeated. Where two headings read alike, the source gives them in different places.
# Experiments:
# [1] = system: Varroa mites (Varroa destructor); test: LD50 determination for mites (topical application, mortality at 24 h); format: in vivo; conditions: for estimated LD50: max. dose 3200 ng/mite in three trials; for Mean LD50 / LD50 1 / LD50 2 / LD50 3: topical, mortality at 24 h; for Mean LD50: mean±se of three trials; for LD50 1: trial 1; for LD50 2: trial 2; for LD50 3: trial 3
# Experimental: Varroa mites (Varroa destructor) were collected from colonies at the Michigan State University apiary in East Lansing, MI. Mites were collected using the “sugar shake” method (Macedo and Ellis 2002). Approximately 350 bees were brushed from brood frames into a plastic basin and then poured into 473 ml wide-mouth Mason jars fitted with screen lids (3 mm×3 mm mesh). Approximately 8 g powdered sugar were sifted through the screen and the jar was shaken for 20 seconds and let to sit for 3 minutes. The mites then fell through the screen onto a piece of paper. Mites were collected, and the sugar dusts were washed off using moistened paintbrushes. Mites were kept in Petri-dishes with worker pupae and transported to the campus lab for LD50 determination.
# Chemicals were dissolved in acetone serially diluted to obtain appropriate dosages. Each mite was topically applied with 0.2 μl of acetone containing the tested chemicals. A triplicate of 10 mites per dose were then housed in a Petri dish (diameter 3 cm, 34.5° C., RH 75%) with one white-eyed worker pupa as food. Mortality was assessed at 24 h. Mites were considered dead if no movement is observed in response to prodding with a metal probe.
# (§1) For both bee and mite mortality data, control mortality was used to correct the mortality of different doses of drugs (Abbott, 1925). A Log-Probit line was fitted for each treatment from which the LD50 values and 95% confidence intervals were calculated using the R statistical package (R Development Core Team 2008).
# [2] = Highest amount that dissolves in acetone; format: physicochemical; conditions: in 4 μl acetone
# Experimental: Higher doses to honey bees were not tested because 2 mg was the highest amount one can dissolve with 4 μl acetone.
# bees = format: in vivo, Apis mellifera
# Experimental: (§2) Picrotoxinin was dissolved in acetone (0.0064 gram picrotoxinin in 1.6 ml acetone=4 ug/ul) and then serially diluted to various doses. A selected amount of picrotoxinin was applied to each bee after CO2 anesthetization. Then, the bees were inoculated with Varroa mites (10 mites on 10 bees per dish). This procedure was employed to ensure that the mites were obtaining the chemical from the bees.
# (§3) The numbers of dead Varroa mites and dead bees were recorded after 2, 4 and 24 hours.
# honey bees (foragers) = test: LD50 determination for bees (topical application to foragers, mortality observed for 2 days); format: in vivo, Apis mellifera
# Experimental: Honey bees were obtained from the MSU apiary. Forty to fifty colonies were routinely kept during summer months for experiments. Foragers were used for LD50 determination because they are the most sensitive to toxins.
# Foragers were collected when they were returning to the hive by an insect vacuum. Foragers were briefly anesthetized with carbon dioxide and individual forager was dosed with 4 μl of acetone containing various dosages of insecticide (at least 5 doses per drug) and a control with 4 μl of acetone only. Bees then were caged together (a triplicate of 10 bees per dose per colony) and their mortality observed for 2 days (acute toxicity) in an incubator (34.5° C., RH 75%).
# as §1
# Varroa mites = test: Picrotoxinin applied to bees inoculated with Varroa mites: dead mites; format: in vivo, Varroa destructor; conditions: for 24-hour dead mite / 4-hour dead mite / 2-hour dead mite: 10 mites on 10 bees per dish
# Experimental: as §2, §3
compound,measurement,setting,value
CC(C)(C)[C@]1(O)CC2OC(=O)CC23C(=O)OC2OC(=O)[C@H](O)C231 (stereo partly shown) [Bilobalide],estimated LD50,[1],>3200 ng/mite
"C=C(C)[C@@H]1[C@H]2OC(=O)[C@@H]1[C@]1(O)C[C@H]3O[C@]34C(=O)O[C@H]2[C@]14C [Picrotoxinin, picrotoxinin]",highest amount one can dissolve,[2],2 mg
same,24-hour dead bee,"bees; 0.005 ug/bee, 10 bees per dish",1
same,2-hour dead bee,"bees; 0.1 ug/bee, 10 bees per dish",1
same,4-hour dead bee,"bees; 0.1 ug/bee, 10 bees per dish",1
same,4-hour dead bee,"bees; 1 ug/bee, 10 bees per dish, # = dead perhaps due to leaked sugar syrup",1#
same,24 hr dead bee,bees; treatment 1 ug/ul,0
same,killing of honeybees at highest dose,"honey bees (foragers); 2,000,000 ng (2 mg) per bee in 4 μl acetone",failed to kill any honeybees
same,LD50,"honey bees (foragers); topical to foragers, max dose 2000 ug/bee",>2000 (max dose ug/bee
same,LD50 for this particular trial (FIG. 1),[1]; dose response of FIG. 1,22.61 ng/mite
same,susceptibility of Varroa mites to toxicity compared to honey bees,[1]; mite LD50 versus highest bee dose,"at least 100,000 fold"
same,Mean LD50,[1],20.16 ± 2.00 ng/mite
same,Mean LD50,[1]; listed as picrotoxinin,20.16±2.00 ng/mite
same,LD50 1,[1],20.82 ng/mite
same,LD50 2,[1],22.61 ng/mite
same,LD50 3,[1],17.05 ng/mite
same,24-hour dead mite,Varroa mites; 0.000005 ug/bee,1
same,4-hour dead mite,Varroa mites; 0.00005 ug/bee,1
same,2-hour dead mite,Varroa mites; 0.0005 ug/bee,1
same,4-hour dead mite,Varroa mites; 0.0005 ug/bee,3
same,24-hour dead mite,Varroa mites; 0.0005 ug/bee,3 and 2
same,2-hour dead mite,Varroa mites; 0.005 ug/bee,1
same,4-hour dead mite,Varroa mites; 0.005 ug/bee,1
same,4-hour dead mite,Varroa mites; 0.05 ug/bee,2 and 1
same,24-hour dead mite,Varroa mites; 0.05 ug/bee,5 and 3
same,2-hour dead mite,Varroa mites; 0.1 ug/bee,2
same,4-hour dead mite,Varroa mites; 0.1 ug/bee,5 and 4
same,24-hour dead mite,Varroa mites; 0.1 ug/bee,6 and 9
same,2-hour dead mite,Varroa mites; 1 ug/bee,2 and 4
same,4-hour dead mite,Varroa mites; 1 ug/bee,4 and 5
same,24-hour dead mite,Varroa mites; 1 ug/bee,7 and 10
same,24 hr dead mite,Varroa mites; treatment 1 ug/ul,9 and 10
same,24 hr dead mite,Varroa mites; treatment 4 ug/ul,10
"CC1(C)C(C=C(Cl)Cl)C1C(=O)OC(C#N)c1ccc(F)c(Oc2ccccc2)c1 (stereo not shown) [Cyfluthrin, reference compound]",Mean LD50,[1],0.63 ± 0.18 ng/mite
same,LD50 1,[1],0.46 ng/mite
same,LD50 2,[1],0.82 ng/mite
same,LD50 3,[1],0.60 ng/mite
Ginkolide A,Mean LD50,[1],535.52±450.90 ng/mite
same,LD50 1,[1],348.63 ng/mite
same,LD50 2,[1],1049.82 ng/mite
same,LD50 3,[1],208.10 ng/mite
Ginkolide C,estimated LD50,[1],>3200 ng/mite
C[C@@H]1C(=O)O[C@H]2[C@H](O)[C@@]34[C@H]5C[C@@H](C(C)(C)C)[C@]36[C@@H](OC(=O)[C@@H]6O)O[C@@]4(C(=O)O5)[C@@]12O [Ginkolide B],estimated LD50,[1],>3200 ng/mite
